PubChem BioAssay (NCI)
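Grown in 96-well plates, cells were treated for 48 hours with each compound at five concentrations. Insufficient inhibition: endpoint recorded as highest concentration tested. At the GI50, growth is halved. The concentration for full growth arrest is given as TGI.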

What was measured:
Assay in all cases: NCI anticancer screen, dose series, 48 h
EKVX NSCLC = system: EKVX NSCLC
HCT-116 colon = system: HCT-116 colon
HL-60(TB) leukemia = system: HL-60(TB) leukemia
M14 melanoma = system: M14 melanoma
MDA-N = system: MDA-N
NCI-H23 lung = system: NCI-H23 lung
SK-MEL-5 melanoma = system: SK-MEL-5 melanoma
SR leukemia = system: SR leukemia
UO-31 renal = system: UO-31 renal

SMILES | TGI (EKVX NSCLC) [µM] | TGI (HCT-116 colon) [µM] | TGI (HL-60(TB) leukemia) [µM] | TGI (M14 melanoma) [µM] | TGI (MDA-N) [µM] | TGI (NCI-H23 lung) [µM] | TGI (SK-MEL-5 melanoma) [µM] | TGI (SR leukemia) [µM] | TGI (UO-31 renal) [µM] | GI50 (EKVX NSCLC) [µM] | GI50 (HCT-116 colon) [µM] | GI50 (HL-60(TB) leukemia) [µM] | GI50 (M14 melanoma) [µM] | GI50 (NCI-H23 lung) [µM] | GI50 (SK-MEL-5 melanoma) [µM] | GI50 (SR leukemia) [µM] | GI50 (UO-31 renal) [µM]
CC(=O)C(C(C)=O)[C@@H]1OC(C)(C)O[C@@H]1[C@H]1COC(C)(C)O1 | 79.1 | > 100 | > 100 | > 100 | 70.1 | > 100 | > 100 | > 100 | > 100 |  |  |  |  |  |  |  | 
Cc1ccc(-c2cc[n+]3c(n2)oc2ccccc23)cc1 | 56.2 | > 100 | 44.2 | 84.5 | > 100 | > 100 |  | 47 | > 100 |  |  |  |  |  |  |  | 
CC1SC2(CCCCC2)N(NC(=O)CSc2nc3ccc(Cl)cc3c(=O)n2-c2ccccc2)C1=O (stereo not given) | > 100 | 27.2 | 51 | 42.2 | 36.2 | 57.4 | 27.9 |  | 40.4 |  |  |  |  |  |  |  | 
O=C(c1cccnc1)N1N=C(c2ccccc2)CC1(O)c1cc(F)c(Cl)cc1Cl (stereo not given) | > 100 | 30.6 | 51.3 | 53.7 | > 100 | > 100 | 27.6 | 67 | > 100 |  |  |  |  |  |  |  | 
CCCCCCCCCCCCCCCCCCNC(=S)/N=C/c1c(O)c2ccccc2[nH]c1=O | 29.6 | 30.4 | 17.9 | 35.5 | 35.3 | 37.5 | 70.7 |  | 32.6 |  |  |  |  |  |  |  | 
Cc1ccc(N=Nc2c(O)ccc3cc(S(=O)(=O)O)ccc23)cc1 | > 100 | > 100 | > 100 | > 100 | > 100 | > 100 | > 100 |  | > 100 |  |  |  |  |  |  |  | 
Cn1c2ccccc2c2cc(N3CCCC3)c3c(c21)C(=O)N(c1ccccc1)C3=O | > 100 | > 100 | > 100 | > 100 | > 100 | > 100 | > 100 | > 100 | > 100 |  |  |  |  |  |  |  | 
S=c1nc(N/N=C/c2cccs2)c2cn[nH]c2[nH]1 | > 100 | > 100 | > 100 | > 100 |  | 66.4 | > 100 | 37.2 | > 100 |  |  |  |  |  |  |  | 
CN(CCCNC(=O)c1nn(C)c2c1Cc1ccccc1-2)CCCNC(=O)c1nn(C)c2c1Cc1ccccc1-2 | 39.2 | 30.2 | 10.8 | 14.5 |  | 47.3 | 29.8 | > 100 | 5.58 |  |  |  |  |  |  |  | 
O=C1CC(=O)NC(=NN2C(=O)CSC2C(=O)c2ccco2)N1 (stereo not given) |  | > 100 |  | > 100 | > 100 | > 100 | > 100 | > 100 | > 100 |  |  |  |  |  |  |  | 
Cc1nc2ccc(F)cc2c(Cl)c1CCCl | > 100 | 92.8 | 35 |  |  | > 100 | 52.7 | 44.9 | > 100 |  |  |  |  |  |  |  | 
CN1CCc2c(sc3ncn(Nc4ccc(Cl)cc4)c(=N)c23)C1 | > 100 | > 100 | > 100 | > 100 | > 100 | > 100 | > 100 |  |  |  |  |  |  |  |  |  | 
C=C(C)[C@H]1C2=CC(C)=C(O2)[C@@H](O)[C@H](C(=C)C)CCC2=C[C@H]1OC2=O | > 100 |  | > 100 | > 100 | > 100 |  | > 100 | > 100 | > 100 |  |  |  |  |  |  |  | 
CN(C)CCNC(=O)c1cccc2nc3c(C(=O)NCCN(C)C)cccc3nc12 | 3.76 | 13.4 | 3.96 | 3.13 |  | 5.76 | 3.02 | 3.6 | 34.1 |  |  |  |  |  |  |  | 
COC(=O)c1c(C)cccc1C1CN=NC12Cc1cc(C)cc(C)c1C2=O (stereo not given) | > 100 | > 100 | 44.2 | > 100 | > 100 | 78.4 | 44.6 |  | > 100 |  |  |  |  |  |  |  | 
Cc1cc2n[n+]3[n-]cc(-c4ccccc4)n3c2cc1[N+](=O)[O-] | > 100 | > 100 | > 100 |  |  |  | > 100 | > 100 | > 100 |  |  |  |  |  |  |  | 
O=C(c1cccs1)N1CCCN(C(=O)c2cccs2)C1=S | > 100 | > 100 | > 100 | > 100 |  | > 100 | > 100 |  | > 100 |  |  |  |  |  |  |  | 
COC(=O)c1ccccc1/C=C1\Cc2ccc3c(c2C1=O)CCCC3 | > 100 | > 100 |  | > 100 | > 100 | > 100 |  | > 100 | > 100 |  |  |  |  |  |  |  | 
Cc1cc(S(=O)(=O)Nc2nncn2-c2ccc(Cl)cc2)c(S)cc1Cl | > 10 | > 10 | > 10 | > 10 | > 10 | > 10 | > 10 |  |  |  |  |  |  |  |  |  | 
Cc1cc(OCCOCCC(F)(F)P(=O)(O)O)ccc1CCc1cnc2c(N)nc3cc(CCC(=O)O)ccc3c2c1 | > 100 | > 100 | > 100 | > 100 |  | > 100 | > 100 | > 100 | > 100 | > 100 | > 100 | > 100 | > 100 | > 100 | > 100 | > 100 | > 100
CCOC(=O)/C=C(\C(=O)OCC)n1cc(Cl)c(=O)n(CC(=O)OCC)c1=O | 30.9 | 4.94 | 7.39 | 10.2 | 24 | 42.6 | 29.1 |  | 3.27 |  |  |  |  |  |  |  | 
COc1cc(C2C3=C(CCCC3=O)N(c3ccc(C)cc3)C3=C2C(=O)CCC3)c([N+](=O)[O-])cc1OC | > 100 |  | > 100 | > 100 |  | > 100 | > 100 | > 100 | > 100 |  |  |  |  |  |  |  | 
O=c1[nH]c2nccn2c2c1SCCN2 | > 100 | > 100 | > 100 | > 100 | > 100 | > 100 | > 100 | > 100 |  |  |  |  |  |  |  |  | 
